Reference: US8362000B2, “Azetidinyl diamides as monoacylglycerol lipase inhibitors” (Janssen Pharmaceutica NV, priority 2009, dated 2013)
Residue numbers refer to the chain shown, from its start. pIC50, pKd: −log10 of the molar value. Read-outs that look alike come from different tables or passages of the source.

Legend:
[1] = test system: CFA-induced paw radiant heat hypersensitivity; assay: CFA-induced paw radiant heat hypersensitivity; format: in vivo, rat; details: Rattus norvegicus, po, HPβCD; for inhibition in vivo at 30 mg/kg: 30 mg/kg p.o., last time point 180 or 300 min; for inhibition in vivo at 10 mg/kg: 5 h, 10 mg/kg p.o., last time point 300 min
Protocol: Each rat was placed in a test chamber on a warm glass surface and allowed to acclimate for approximately 10 min. A radiant thermal stimulus (beam of light) was then focused through the glass onto the plantar surface of each hind paw in turn. The thermal stimulus was automatically shut off by a photoelectric relay when the paw was moved or when the cut-off time was reached (20 sec for radiant heat at ˜5 amps). An initial (baseline) response latency to the thermal stimulus was recorded for each animal prior to the injection of complete Freund's adjuvant (CFA). […] Immediately following the post-CFA latency assessment, the indicated test compound or vehicle was administered orally.
The percent reversal (% R) of hypersensitivity was calculated in one of two different ways: 1) using group mean values or 2) using individual animal values. More specifically:
Method 2. For some compounds, the % R of hypersensitivity was calculated separately for each animal according to the following formula: % reversal=[(individual treatment response−individual CFA response)/(individual baseline response−individual CFA response)]×100. Results are given as a mean of the maximum % reversal values calculated for each individual animal.

[2] = biological target: T1, mutant MGL (Homo sapiens, UniProt Q99685, L169S/L176S); assay: MGL ThermoFluor assay - mutant; format: binding; details: for pKd: read-out: MGL mutant ThermoFluor Kd
T1 sequence (Q99685 1-303 L169S/L176S): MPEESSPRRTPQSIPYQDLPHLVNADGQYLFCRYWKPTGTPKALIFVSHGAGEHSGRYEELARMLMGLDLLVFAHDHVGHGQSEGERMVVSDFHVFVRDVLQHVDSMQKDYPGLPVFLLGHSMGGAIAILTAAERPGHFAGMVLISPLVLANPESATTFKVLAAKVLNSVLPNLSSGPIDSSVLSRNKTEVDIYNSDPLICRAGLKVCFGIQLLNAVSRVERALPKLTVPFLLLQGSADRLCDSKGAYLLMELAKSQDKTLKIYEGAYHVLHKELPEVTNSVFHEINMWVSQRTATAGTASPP

[3] = biological target: T2, purified wild type MGL (wt-MGLL 6H-11-313) (Homo sapiens, UniProt Q99685)
T2 sequence (Q99685 1-303): T1 sequence (Q99685 1-303 L169S/L176S) with S169L, S176L

[4] = biological target: T3, MGL (Rattus norvegicus, UniProt Q8R431); assay: 2-AG accumulation assay in rat brain homogenate; format: biochemical; details: rat brain homogenate; compound 1 μM; 2-AG accumulation as percent of vehicle; read-out: Rat Brain 2AG % VehCntrl (%) @ 1 μM
T3 construct: one g rat brain was homogenized using a Polytron homogenizer; from tissue; host or cells: rat brain homogenate
T3 sequence (Q8R431 1-303): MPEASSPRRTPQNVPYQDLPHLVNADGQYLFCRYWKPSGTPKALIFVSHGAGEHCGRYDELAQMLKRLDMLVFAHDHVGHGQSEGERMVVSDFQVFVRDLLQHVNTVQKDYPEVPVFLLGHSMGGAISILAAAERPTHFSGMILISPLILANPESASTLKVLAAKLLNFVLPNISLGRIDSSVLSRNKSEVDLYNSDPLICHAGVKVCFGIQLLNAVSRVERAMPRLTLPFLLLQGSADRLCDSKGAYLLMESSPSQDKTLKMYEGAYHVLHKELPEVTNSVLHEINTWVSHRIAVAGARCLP

[5] = group mean values, read-out: CFA thermal hypersensitivity Method 1: peak % reversal
[6] = ThermoFluor concentration-response
[7] = individual animal values, read-out: CFA thermal hypersensitivity Method 2: peak % reversal
[8] = ThermoFluor thermal stability binding assay

pKd [2, 6]	pIC50 [3]	Structure (SMILES)	inhibition in vivo at 30 mg/kg [1, 5] [%]	inhibition in vivo at 30 mg/kg [1, 7] [%]	also measured
7.82	7.18	O=C(c1ccc2c(ccn2-c2ncccn2)c1)N1CC(N2CCN(C(=O)c3nccs3)CC2)C1 [Cpd 1174, 1-Pyrimidin-2-yl-5-({3-[4-(1,3-thiazol-2-ylcarbonyl)piperazin-1-yl]azetidin-1-yl}carbonyl)-1H-indole]	13.6		
		O=C(c1cscn1)N1CCN(C2CN(C(=O)c3sc4cc(C(F)(F)F)ccc4c3Cl)C2)CC1 [Cpd 335, 1-(1-{[3-Chloro-6-(trifluoromethyl)-1-benzothiophen-2-yl]carbonyl}azetidin-3-yl)-4-(1,3-thiazol-4-ylcarbonyl)piperazine]	108	135	
	> 8.30	O=C(c1nccs1)N1CCN(C2CN(C(=O)c3sc4cc(C(F)(F)F)ccc4c3F)C2)CC1 [Cpd 895, 1-(1-{[3-Fluoro-6-(trifluoromethyl)-1-benzothiophen-2-yl]carbonyl}azetidin-3-yl)-4-(1,3-thiazol-2-ylcarbonyl)piperazine]	23.4		
	> 8.30	Cc1c(C(=O)N2CC(N3CCN(C(=O)c4nccs4)CC3)C2)sc2cc(C(F)(F)F)ccc12 [Cpd 899, 1-(1-{[3-Methyl-6-(trifluoromethyl)-1-benzothiophen-2-yl]carbonyl}azetidin-3-yl)-4-(1,3-thiazol-2-ylcarbonyl)piperazine]	80.1		
		O=C(c1ccc2nc(-c3ccccc3)oc2c1)N1CC(N2CCN(C(=O)c3cscn3)CC2)C1 [Cpd 1141, 2-Phenyl-6-({3-[4-(1,3-thiazol-4-ylcarbonyl)piperazin-1-yl]azetidin-1-yl}carbonyl)-1,3-benzoxazole]	5.7		
		O=C(c1ccc2c(cnn2-c2ccc(F)c(F)c2)c1)N1CC(N2CCN(C(=O)c3nccs3)CC2)C1 [Cpd 1106, 1-(3,4-Difluorophenyl)-5-({3-[4-(1,3-thiazol-2-ylcarbonyl)piperazin-1-yl]azetidin-1-yl}carbonyl)-1H-indazole]	45		2-AG accumulation, % of vehicle control at 1 µM [4]: 784%
		O=C(c1ccc2oc(-c3ccccc3)nc2c1)N1CC(N2CCN(C(=O)c3nccs3)CC2)C1 [Cpd 317, 2-Phenyl-5-({3-[4-(1,3-thiazol-2-ylcarbonyl)piperazin-1-yl]azetidin-1-yl}carbonyl)-1,3-benzoxazole]	43		2-AG accumulation, % of vehicle control at 1 µM [4]: 417%
		O=C(c1ccccc1)N1CCN(C2CN(C(=O)c3ccc4c(ccn4-c4ccc(C(F)(F)F)cc4)c3)C2)CC1 [Cpd 126, 5-({3-[4-(Phenylcarbonyl)piperazin-1-yl]azetidin-1-yl}carbonyl)-1-[4-(trifluoromethyl)phenyl]-1H-indole]	51	79.5	inhibition in vivo at 10 mg/kg [1, 5]: 40.8%; inhibition in vivo at 10 mg/kg [1, 7]: 40.4%
9.00	> 8.30	O=C(c1ccc2c(-c3cccc(C(F)(F)F)c3)c[nH]c2c1)N1CC(N2CCN(C(=O)c3nccs3)CC2)C1 [Cpd 1341, 6-({3-[4-(1,3-Thiazol-2-ylcarbonyl)piperazin-1-yl]azetidin-1-yl}carbonyl)-3-[3-(trifluoromethyl)phenyl]-1H-indole]	7.5		
		O=C(c1ccccc1)N1CCN(C2CN(C(=O)c3ccc4c(ccn4-c4ccc(F)cc4)c3)C2)CC1 [Cpd 567, 1-(4-Fluorophenyl)-5-({3-[4-(phenylcarbonyl)piperazin-1-yl]azetidin-1-yl}carbonyl)-1H-indole]	63.1		
8.70	7.64	Cn1cc(-c2ccccc2)c2ccc(C(=O)N3CC(N4CCN(C(=O)c5nccs5)CC4)C3)cc21 [Cpd 1132, 1-Methyl-3-phenyl-6-({3-[4-(1,3-thiazol-2-ylcarbonyl)piperazin-1-yl]azetidin-1-yl}carbonyl)-1H-indole]	0		
		O=C(c1ccc2nc(-c3ccccc3)oc2c1)N1CC(N2CCN(C(=O)c3nccs3)CC2)C1 [Cpd 318, 2-Phenyl-6-({3-[4-(1,3-thiazol-2-ylcarbonyl)piperazin-1-yl]azetidin-1-yl}carbonyl)-1,3-benzoxazole]	44.7		
7.43	7.72	O=C(c1ccc2nc(-c3ccccc3)sc2c1)N1CC(N2CCN(C(=O)c3nccs3)CC2)C1 [Cpd 1125, 2-Phenyl-6-({3-[4-(1,3-thiazol-2-ylcarbonyl)piperazin-1-yl]azetidin-1-yl}carbonyl)-1,3-benzothiazole]	64.5	90.3	
8.10	> 8.30	O=C(c1ccc2c(ccn2-c2ccc(C(F)(F)F)cc2)c1)N1CC(N2CCN(C(=O)c3cscn3)CC2)C1 [Cpd 1359, 5-({3-[4-(1,3-Thiazol-4-ylcarbonyl)piperazin-1-yl]azetidin-1-yl}carbonyl)-1-[4-(trifluoromethyl)phenyl]-1H-indole]	5.1	12.7	
8.70	> 8.30	O=C(c1ccc2c(ccn2-c2ccc(C(F)(F)F)cc2)c1)N1CC(N2CCN(C(=O)c3nccs3)CC2)C1 [Cpd 1357, 5-({3-[4-(1,3-Thiazol-2-ylcarbonyl)piperazin-1-yl]azetidin-1-yl}carbonyl)-1-[4-(trifluoromethyl)phenyl]-1H-indole]	51	46.1	
	8.30	Cc1cn(-c2ccccc2)c2ccc(C(=O)N3CC(N4CCN(C(=O)c5nccs5)CC4)C3)cc12 [Cpd 1054]	27.6		pKd [2, 8]: 9.00; Kd ([2]; ThermoFluor, compound concentration measured by qNMR, read-out: MGL mutant ThermoFluor qKd (μM) (using qNMR conc.)): 0.001 µM
8.15	> 8.30	O=C(c1ccc2c(ccn2-c2ccc(F)cc2)c1)N1CC(N2CCN(C(=O)c3cscn3)CC2)C1 [Cpd 1358, 1-(4-Fluorophenyl)-5-({3-[4-(1,3-thiazol-4-ylcarbonyl)piperazin-1-yl]azetidin-1-yl}carbonyl)-1H-indole]	25.4		
	> 8.30	O=C(c1nccs1)N1CCN(C2CN(C(=O)c3sc4cc(Br)ccc4c3Cl)C2)CC1 [Cpd 326, 1-{1-[(6-Bromo-3-chloro-1-benzothiophen-2-yl)carbonyl]azetidin-3-3yl}-4-(1,3-thiazol-2-ylcarbonyl)piperazine]	17.3	17.5	pKd [2, 8]: 9.40
		Cc1cn(-c2ccc(F)cc2)c2ccc(C(=O)N3CC(N4CCN(C(=O)c5nccs5)CC4)C3)cc12 [Cpd 1088, 1-(4-Fluorophenyl)-3-methyl-5-({3-[4-(1,3-thiazol-2-ylcarbonyl)piperazin-1-yl]azetidin-1-yl}carbonyl)-1H-indole]	35.3		2-AG accumulation, % of vehicle control at 1 µM [4]: 760%; pKd [2, 8]: 9.00
		O=C(c1ccc2c(ccn2-c2ccc(F)cc2)c1)N1CC(N2CCN(C(=O)c3nccs3)CC2)C1 [Cpd 487, 1-(4-Fluorophenyl)-5-({3-[4-(1,3-thiazol-2-ylcarbonyl)piperazin-1-yl]azetidin-1-yl}carbonyl)-1H-indole]	109	166	
